Source: patent publication US20150119317A1, “ORAL SOLID DOSAGE FORMULATION OF 1,1-DIMETHYLETHYL [(1S)-1-CARBAMOYL)PYRROLIDIN-1-YL]CARBONYL}-2,2-DIMETHYLPROPYL]CARBAMATE” (BRISTOL-MYERS SQUIBB COMPANY, priority 2012, published 2015)

Test: Bioequivalence study: PK of wet and dry granulated tablets in a dog model
Assay type: in vivo
Settings: fed state with 50 ml high-fat meal substitute
Protocol: A study was conducted to compare conventional tablet dosage forms. The goal of the study was to assess the in vivo performance of various prototypes of conventional tablet dosage forms (wet and dry granulated tablets) in a dog model.
The following five formulations were tested: […]
1. Phase 2 Clinical (dry granulated (DG)) tablet 2×200 mg.
2. Wet granulated (WG) Vitamin E TPGS/poloxamer tablet: 50% w/w Compound I+4.67% w/w Vitamin E TPGS+4% w/w poloxamer+14.33% w/w microcrystalline cellulose+15% lactose monohydrate+11.5% w/w croscarmellose sodium+0.5% w/w magnesium stearate; 2×200 mg (Corresponds to the formulation shown above in Table 1).
3. WG poloxamer tablet: 50% w/w Compound I+2% w/w polyvinyl pyrrolidone+4% w/w poloxamer+16% microcrystalline cellulose+16% w/w lactose monohydrate+11.5% w/w croscarmellose sodium+0.5% w/w magnesium stearate; 2×200 mg (Corresponds to the formulation shown above in Table 5).
4. Amorphous API tablet: 50% w/w Compound I+41.25% w/w microcrystalline cellulose+5% w/w croscarmellose sodium+2% w/w silicon dioxide+1% w/w sodium lauryl sulphate+0.75% w/w magnesium stearate; 2×200 mg.
5. Solution Formulation: Polyethylene glycol 400:EtOH: polysorbate 80 (50:35:15), 20 mg/mL.
The protocol used was as follows:
[…] For food-effect studies in the fed state, dogs were given 50 ml high-fat meal substitute instead of water.

food effect: significant positive food effect
SMILES: C=C[C@@H]1C[C@]1(NC(=O)[C@@H]1C[C@@H](Oc2ncc(OC)c3ccc(Cl)cc23)CN1C(=O)[C@@H](NC(=O)OC(C)(C)C)C(C)(C)C)C(=O)NS(=O)(=O)C1CC1 [Compound I, 1,1-dimethylethyl[(1S)-1-{[(2S,4R)-4-(7-chloro-4methoxyisoquinolin-1-yloxy)-2-({(1R,2S)-1-[(cyclopropylsulfonyl)carbamoyl]-2-ethenylcyclopropyl}carbamoyl)pyrrolidin-1-yl]carbonyl}-2,2-dimethylpropyl]carbamate]
